{
  "source": "paper PMC9001978",
  "about": "“Determining the Effects of Differential Expression of GRKs and β-arrestins on CLR-RAMP Agonist Bias” (Frontiers in Physiology, 2022)",
  "key": {"[1]": {"tested_on": "CLR-RAMP complexes", "assay": "Effect of barbadin on CLR-RAMP internalisation", "format": "cell-based", "conditions": "any CLR-RAMP complex, at concentration that blocked GLP-1R internalisation"}, "[2]": {"tested_on": "CLR-RAMP complexes", "assay": "Effect of barbadin on cAMP accumulation at CLR-RAMP complexes", "format": "cell-based", "conditions": "all agonists, three CLR-RAMP complexes"}, "[3]": {"tested_on": "free fatty acid receptor 2 (FFAR2)", "conditions": "ref Wang et al., 2020; cited from earlier work"}, "[4]": {"tested_on": "β-arrestin-AP2 complex", "conditions": "ref Beautrait et al., 2017; cited from earlier work", "description": "The canonical role of β-arrestins is the desensitisation of G protein signalling; steric hindrance to disrupt G protein-receptor association and acting as scaffolds for proteins which decrease the G protein activity and output e.g. phosphodiesterases (PDEs) ([Perry et al., 2002]). Additionally, β-arrestins mediate agonist dependent internalisation at many GPCRs, through the recruitment of β2-adaptin (AP2) and subsequently clathrin, to mediate endocytosis. […] Barbadin is an inhibitor of the β-arresti ..."}, "[5]": {"tested_on": "V2-vasopressin receptor (V2R)", "conditions": "ref Beautrait et al., 2017; cited from earlier work", "description": "(§1) The data we have obtained related to agonist-dependent internalisation of CLR in the presence of barbadin (Figure 3C) appear contradictory when compared to our results obtained with the HEK293∆β-arr1/2 cell lines (Figure 4A)."}, "[6]": {"tested_on": "β2-adrenergic receptor (β2AR)", "conditions": "ref Beautrait et al., 2017; cited from earlier work", "description": "as §1"}, "[7]": {"tested_on": "angiotensin-II type-1 receptor (AT1R)", "conditions": "ref Beautrait et al., 2017; cited from earlier work", "description": "as §1"}, "[8]": {"tested_on": "protease-activated receptor 2 (PAR2)", "conditions": "ref Jung et al., 2021; cited from earlier work", "description": "as §1"}, "[9]": {"tested_on": "CLR-RAMP complexes", "assay": "Effect of barbadin on cAMP accumulation in β-arrestin KO HEK293 cells", "format": "cell-based", "conditions": "100 μM barbadin"}, "[10]": {"tested_on": "5-HT2CR", "conditions": "ref He et al., 2021; cited from earlier work"}, "[11]": {"tested_on": "Glucagon-like peptide-1 receptor (GLP-1R)", "assay": "Effect on GLP-1R internalisation", "format": "cell-based", "conditions": "100 μM, 30 min preincubation"}},
  "note": "“Also recorded” adds a separate entry of the source.",
  "data": [
    {"smiles": "Nn1cnc2scc(-c3ccc(Cc4ccccc4)cc3)c2c1=O", "note": "[Barbadin]", "values": [
      {"measurement": "Effect of barbadin on agonist-mediated CLR internalisation", "setting": "[1]", "result": "did not block agonist-mediated CLR internalisation; also recorded: no effect on receptor internalisation"},
      {"measurement": "Effect of barbadin on cAMP accumulation", "setting": "[2]", "result": "reduce cAMP accumulation"},
      {"measurement": "Effect of barbadin on cAMP accumulation", "setting": "[2]; listed as barbadin", "result": "significantly reduce cAMP accumulation; also recorded: significantly attenuated cAMP signalling"},
      {"measurement": "Block of receptor internalisation", "setting": "[3]", "result": "successfully block"},
      {"measurement": "Effect on β-arrestin recruitment", "setting": "[4]", "result": "without inhibiting β-arrestin recruitment"},
      {"measurement": "Inhibition of β-arrestin-AP2 interaction", "setting": "[4]", "result": "inhibitor of the β-arrestin-AP2 interacting domain"},
      {"measurement": "Block of receptor internalisation", "setting": "[5]", "result": "successfully block"},
      {"measurement": "Block of receptor internalisation", "setting": "[6]", "result": "successfully block"},
      {"measurement": "Block of receptor internalisation", "setting": "[7]", "result": "successfully block"},
      {"measurement": "Block of receptor internalisation", "setting": "[8]", "result": "successfully block"},
      {"measurement": "Effect of barbadin on cAMP accumulation", "setting": "[9]", "result": "agonist dependent reduction in cAMP accumulation"},
      {"measurement": "Block of receptor internalisation", "setting": "[10]", "result": "successfully block"},
      {"measurement": "Effect on GLP-1R internalisation", "setting": "[11]", "result": "successfully block"},
      {"measurement": "Effect on GLP-1R internalisation", "setting": "[11]; listed as barbadin", "result": "inhibit GLP-1R internalisation"}
    ]}
  ]
}
